| SMILES | melting point [°C] |
| --- | --- |
| O=C(O)C1CCCCC1C(=O)NC1CCS(=O)(=O)C1 (stereo unspecified) | 137 to 139 |
| Cc1c(C(N)=O)sc2nc[nH]c(=O)c12 | 283 to 285 |
| Cc1nn(C)cc1C(=O)O | 190 to 192 |
| O=C(O)c1ccccc1N1CCCC1 | 87 to 89 |
| CCOC(=O)c1c(N)sc(C)c1CC | 45 to 47 |
| NS(=O)(=O)Cc1ccc([N+](=O)[O-])cc1Br | 200 to 202 |
| O=C(O)c1nccnc1C(=O)N1CCOCC1 | 185 to 187 |
| COc1cc(NC(=O)C2CCCC2)c(C(=O)O)cc1OC | 193 to 195 |
| NC1CCc2[nH]ncc2C1 (stereo unspecified) | 168 to 170 |
| CC(C)n1ncc2c(C(=O)O)cc(C3CC3)nc21 | 144 to 146 |
| CN(C)C(=O)Sc1cnc2c(c1)c(=O)n(C)c(=O)n2C | 170 to 172 |
| CCC1(C)NC(=O)NC1=O (stereo unspecified) | 144 to 150 |
| NS(=O)(=O)c1ccc([N+](=O)[O-])cc1[N+](=O)[O-] | 149 to 151 |
| NS(=O)(=O)c1ccc(CC(=O)O)cc1 | 169 to 171 |
| Cc1cc([N+](=O)[O-])cc(S(=O)(=O)Cl)c1F | 73 to 75 |
| CCC(Br)C(N)=O (stereo unspecified) | 108 to 110 |
| Cc1nc(N2CCCC2)[nH]c(=O)c1CC(=O)O | 262 to 264 |
| CC(Cl)C(=O)Nc1ccccc1Oc1ccccc1 (stereo unspecified) | 64 to 66 |
| CCOC(=O)C(C)NC(=O)c1ccc(N)cc1 (stereo unspecified) | 127 to 129 |
| O=C1CC(C(=O)O)C1 | 58 to 60 |
| O=C(O)c1cc(S(=O)(=O)Cl)c(Br)s1 | 109 to 111 |
| NC(=O)NC1(C(=O)O)CCCCC1 | 179 to 181 |

| SMILES | melting point [°C] |
| --- | --- |
| COC(=O)N(C)c1ccc(O)cc1 | 99 to 101 |
| COc1ccc(C(=O)N2CCCC(C(=O)O)C2)c2ccccc12 (stereo unspecified) | 255 to 257 |
| CC(C)c1ccc(C(CN)NC(=O)OC(C)(C)C)cc1 (stereo unspecified) | 123 to 125 |
| NC(=O)C1CCC(C(F)(F)F)NC1 (stereo unspecified) | 127 to 129 |
| NN1CCCC1=O | 47 to 49 |
| Cc1nn(C(C)(C)C)c2nc(C3CC3)cc(C(=O)O)c12 | 172 to 174 |
| COC(=O)c1cc(OC)c(OC)c(OC)c1N | 44 to 45 |
| Cc1cc(F)c2nc(O)cc(C(=O)O)c2c1 | 337 to 339 |
| CC1CC1c1ccc(C(=O)O)o1 (stereo unspecified) | 55 to 57 |
| CCNc1ccc(S(=O)(=O)C(F)(F)F)cc1 | 63 to 65 |
| O=C(O)CSc1ccccc1[N+](=O)[O-] | 166 to 168 |
| CN(C)C(Cc1ccccc1)C(=O)O (stereo unspecified) | 225 to 227 |
| CCNc1c(N)n(CC)c(=O)[nH]c1=O | 210 to 212 |
| CC(=Cc1ccc(OCc2ccccc2)c(OCc2ccccc2)c1)C(=O)O | 138 to 140 |
| Cc1nn(CC(=O)O)c(C)c1/C=N/O | 203 to 205 |
| NC(=O)CCN(C(=O)CCl)c1ccccc1 | 143 to 145 |
| O=C(O)c1sccc1S(=O)(=O)C(F)F | 121 to 123 |
| COCCOC(=O)c1c(C)[nH]c(C(=O)O)c1C | 177 to 179 |
| CCNc1ccc(S(=O)(=O)C(F)(F)F)cc1N | 149 to 151 |
| ONCc1ccc(F)cc1 | 59 to 61 |
| O=C(O)C1CCC(n2cccc2)CC1 (stereo unspecified) | 143 to 145 |
| Cc1ccc(CC(=O)Cc2ccc(C)cc2)cc1 | 53 to 55 |

| SMILES | melting point [°C] |
| --- | --- |
| COCCOCC(=O)Nc1cccc(N)c1C | 82 to 84 |
| Cc1csc(=O)[nH]1 | 98 to 100 |
| COc1cc(S(N)(=O)=O)ccc1N | 142 to 144 |
| CC1(O)CCNC1 (stereo unspecified) | 37 to 39 |
| O=C(Nc1ccccc1F)Nc1cccc2c1CCNC2 | 157 to 159 |
| c1ncn(C2CCNCC2)n1 | 97 to 99 |
| CC(C)(C)c1nnc(CCl)o1 | 42 to 44 |
| c1ccc(NC2CCN(c3ccncc3)CC2)cc1 | 145 to 147 |
| Cc1cc(C)c(C#N)c(=S)[nH]1 | 255 to 257 |
| Cc1n[nH]c(C)c1SCC(=O)O | 153 to 155 |
| NS(=O)(=O)c1ccc(OCCBr)cc1 | 111 to 113 |
| COC(=O)C(=O)CC(=O)c1ccc(C)cc1 | 86 to 88 |
| CC(C)n1c(C(=O)O)cc(Br)c1Br | 127 to 129 |
| CC(C)NS(=O)(=O)c1ccc(C(=O)O)cc1 | 225 to 227 |
| CCOC(=O)c1c[nH]c2cc(F)c(F)c(F)c2c1=O | 339 to 341 |
| Nc1ccc(NC(=O)Oc2ccccc2)cc1 | 135 to 137 |
| CCOC(=O)C1SC(=N)NC1=O (stereo unspecified) | 175 to 177 |
| N=c1[nH]cc(S(=O)(=O)O)cc1[N+](=O)[O-] | 317 to 319 |
| N#CCCn1cc(/C=C/C(=O)O)c2ccccc21 | 188 to 192 |
| N#CCC(=O)NCCN1CCOCC1 | 68 to 75 |

More lines, now with the values ahead:

| melting point [°C] | SMILES |
| --- | --- |
| 270 to 272 | Cc1cc(=O)n2c([nH]c3ccccc32)c1C#N |
| 165 to 167 | COc1cc(C(C)=O)ccc1OCC(=O)O |
| 137 to 139 | Nc1cc(-c2cccc([N+](=O)[O-])c2)n[nH]1 |
| 60 to 62 | COC(=O)c1cc(-c2ccccc2)nc2ccccc12 |
| 209 to 211 | CNS(=O)(=O)c1cc(C(=O)O)ccc1F |
| 79 to 81 | CC(C)(C)OC(=O)NCc1cccc(O)c1 |
| 48 to 50 | Clc1noc(-c2ccoc2)n1 |
| 251 to 253 | Cc1cc2nc(-c3ccccc3)cc(C(=O)O)c2cc1C |
| 138 to 140 | Cc1noc2nc(-c3cccs3)cc(C(=O)O)c12 |
| 63 to 65 | O=S(=O)(CCCl)c1cccc(Br)c1 |
| 115 to 117 | Cn1nc(Br)c2c(Cl)ncnc21 |
| 132 to 134 | CCOC(=O)/C(C#N)=C/Nc1cc(Cl)ccc1OC |
| 128 to 130 | Cc1nn(-c2ccc(F)cc2)c(C)c1C=O |
| 279 to 281 | O=c1[nH]cnc2nc(NCc3ccco3)sc12 |
| 219 to 221 | Cc1c(C(=O)O)nnn1-c1ccc2ncccc2c1 |
| 181 to 183 | NC(=S)c1cnn(-c2ccccc2)c1 |
| 54 to 56 | O=C(c1cccnc1)c1ccc(F)cc1F |
| 221 to 225 | CSCc1nc2ccccc2n1CC(=O)O |
| 181 to 183 | Cc1nc2sccc2c(=O)n1N |
| 63 to 65 | N#Cc1c(F)cccc1S(=O)(=O)Cl |
| 159 to 161 | COc1ccc2[nH]nc(N)c2c1 |
| 89 to 91 | COc1cc(Cl)ccc1S(=O)(=O)Cl |
| 209 to 211 | Cn1nc(-c2ccncc2)cc1O |
| 194 to 196 | Cc1ccc(/C=C/C(=O)O)cc1Cl |
| 156 to 158 | Clc1nnc(-c2ccccc2)c2ccccc12 |
| 91 to 93 | Cc1ccc(-c2csc(CC#N)n2)cc1 |

| melting point [°C] | SMILES |
| --- | --- |
| 134 to 138 | CON(C)S(=O)(=O)c1cccc(C(=O)O)c1 |
| 157 to 159 | O=S(=O)(Nc1nc2ccccc2nc1Cl)c1ccccc1C(F)(F)F |
| 140 to 142 | Cn1[nH]c(-c2ccco2)c(-c2ccc3c(c2)OCO3)c1=N |
| 179 to 181 | N#Cc1nnc2ccccc2c1Cl |
| 249 to 251 | NC(=O)c1ccc(C(=O)O)nc1 |
| 190 to 192 | NS(=O)(=O)c1ccc(-n2cccn2)c(F)c1 |
| 51 to 53 | C=Cc1nc(-c2cccc(Cl)c2)no1 |
| 101 to 103 | CN(C)CCCNS(=O)(=O)c1cccc(C#N)c1 |
| 327 to 329 | N#Cc1c(-c2ccccc2)nc(S)[nH]c1=O |
| 164 to 166 | NC(=O)C1CCN(CC(=O)c2ccc(Cl)cc2)CC1 |
| 144 to 146 | Cc1ccc(N2CCc3c(N)cccc3C2)nn1 |
| 65 to 67 | COc1cc(C(C)=O)ccc1OC(F)F |
| 146 to 148 | O=S(=O)(c1cccc2cnccc12)N1CCCNCC1 |
| 205 to 207 | Nc1ccc(C(=O)N2CCOCC2)c(Cl)c1 |
| 222 to 224 | COC(=O)c1ccc(O)nc1C |
| 80 to 82 | Nc1ccn(-c2cccc(C(F)(F)F)c2)n1 |
| 96 to 98 | CNS(=O)(=O)c1cccc(C(C)=O)c1 |
| 271 to 273 | O=C(O)c1ccc(N2CCOC2=O)cc1 |
| 189 to 191 | CCn1c(N)nc2cc(C#N)ccc21 |
| 161 to 163 | O=C(O)C1=NN(c2ccc(Cl)cc2)C(=O)CC1 |
| 158 to 160 | Nc1ccccc1C(=O)Nc1ccc(Cl)cn1 |
| 69 to 71 | CCOC(=O)c1cc(F)ccc1S(=O)(=O)Cl |
| 215 to 217 | O=C(O)c1ccc2c(c1)C(=O)N(CCc1ccccc1)C2=O |
| 172 to 174 | N#Cc1cnc2c(F)ccc(F)c2c1Cl |
| 209 to 211 | O=C(O)c1c[nH]cc1-c1cc(Cl)c2c(c1)OCCO2 |
| 52 to 54 | CN(C)C(=O)c1cccc(Br)c1 |

| melting point [°C] | SMILES |
| --- | --- |
| 304 to 306 | O=C(O)c1cc(O)nc2ccc(S(=O)(=O)N3CCOCC3)cc12 |
| 108 to 110 | Nc1ccccc1CN1C(=O)CCC1=O |
| 45 to 47 | Cc1ccc(N)c(Cl)c1Cl |
| 92 to 96 | COC(=O)c1c(-c2ccccc2Cl)csc1N |
| 170 to 172 | O=C1NC(=O)C(=Cc2ccccc2C(F)(F)F)S1 |
| 182 to 184 | NC(=O)c1ccc(OCCCl)cc1 |
| 221 to 223 | Nc1ccc2nc3n(c(=O)c2c1)CCC3 |
| 129 to 131 | Nc1cc(S(=O)(=O)N2CCCCC2)ccc1Cl |
| 69 to 71 | COc1ccc([N+](=O)[O-])cc1C#N |
| 95 to 97 | Nc1ccc(C(=O)NCc2ccccc2F)cc1 |
| 183 to 185 | CCc1ccc(-n2nc(C(=O)O)c3c2CCC3)cc1 |
| 231 to 233 | O=C(O)CNC(=O)c1cc2ccccc2[nH]1 |
| 122 to 124 | CCNC(=O)Nc1cccc(N)c1 |
| 117 to 119 | O=Cc1cc(Br)c2c(c1)OCO2 |
| 125 to 127 | O=Cc1cn(-c2ccccc2)cn1 |
| 179 to 181 | Cn1c(S)nnc1-c1ccco1 |
| 123 to 125 | Cc1cccc(OC(C)C(=O)O)c1C (stereo unspecified) |
| 170 to 172 | O=C(O)C1(Cc2nc3ccccc3s2)CCCCC1 |
| 167 to 169 | C#CCNC(=O)Nc1cccc(C#N)c1 |
| 61 to 63 | N#Cc1cccc(C(=O)N2CCCCC2)c1 |
| 127 to 129 | COc1ccccc1-c1csc(=O)[nH]1 |
| 94 to 96 | COC(=O)c1sc(-c2ccccc2)cc1O |
| 221 to 223 | O=c1c2ccccc2nc(S)n1Cc1ccc(Cl)cc1 |
| 225 to 227 | O=C(O)c1cc(-c2ccccc2Cl)[nH]n1 |
| 212 to 214 | O=C(O)c1nn(-c2ccc(Cl)cc2)c2c1CCCCC2 |

From a melting point compilation (Tetko et al.)
